According to patent publication US20220402873A1, “NOVEL P62 LIGAND COMPOUND, AND COMPOSITION CONTAINING SAME FOR PREVENTING, AMELIORATING, OR TREATING PROTEINOPATHIES” (AUTOTAC INC., priority 2019, published 2022):

Tests used:
Assay type in all cases: cell-based
p62 protein [1] = molecular target: T1, p62 protein (Homo sapiens, UniProt Q13501); assay: Activity of p62 protein and delivery to autophagosome by immunofluorescence staining (p62, LC3-GFP) and confocal microscopy; set-up: endogenous in cells; host or cells: HeLa; details: Hela-LC3-GFP cell line, 5 uM, 24 hours
T1 sequence (Q13501 whole entry): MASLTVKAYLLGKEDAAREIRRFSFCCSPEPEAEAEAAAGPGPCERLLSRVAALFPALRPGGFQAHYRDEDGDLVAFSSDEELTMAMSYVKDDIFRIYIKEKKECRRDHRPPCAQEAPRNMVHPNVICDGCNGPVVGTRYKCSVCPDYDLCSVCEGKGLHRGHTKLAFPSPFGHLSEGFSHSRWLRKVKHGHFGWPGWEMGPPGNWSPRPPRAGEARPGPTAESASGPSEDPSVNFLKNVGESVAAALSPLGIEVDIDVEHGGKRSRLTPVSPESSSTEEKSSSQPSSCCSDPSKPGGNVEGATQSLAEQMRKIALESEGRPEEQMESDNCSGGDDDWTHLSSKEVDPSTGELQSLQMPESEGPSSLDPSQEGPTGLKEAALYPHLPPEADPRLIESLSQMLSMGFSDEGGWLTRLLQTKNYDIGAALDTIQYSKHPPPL
Description: Immunofluorescence staining was performed using p62 and FK2 marker to determine the level of activity of p62 protein of the compounds (Examples 1-20). In order to determine the level of p62 activity and autophagy activity by the novel p62 ligand and its isomers in cultured cells, Hela-LC3-GFP cell line derived from cervical cancer patients was treated with the novel p62 ligand compounds (Example 2 (ATB10047), Example 3 (ATB10049), Example 4 (ATB10051), Example 6 (ATB10056), Example 9 (ATB10060), Example 12 (ATB10078), Example 16 (ATB10087) and Example (ATB10097)) and cultured. Then, the level of puncta expression and location of LC3-GFP, which is an essential autophagosome marker for macroautophagy, and the puncta local co-existence of p62 were observed.
For immunofluorescence staining, a cover glass was placed on a 24-well plate, cells were dispensed and cultured for 24 hours, and then treated with 5 uM of the novel p62 ligand according to the present invention. The cells were further cultured for an additional 24 hours for the action of the compound, the medium was removed, and the cells were fixed using formaldehyde at room temperature. In order to prevent non-specific staining, the cells were reacted with a blocking solution at room temperature for 1 hour, and then the LC3 antibody diluted at a certain ratio was treated with the blocking solution and then reacted at room temperature for 1 hour. After the antibody-treated cells were washed 3 times with PBS, the goat-derived secondary antibody was diluted at a certain ratio using the blocking solution, and then reacted at room temperature for 30 minutes. The cells were washed again with PBS three times and subjected to DAPI staining for intracellular nuclear staining, and then the level of expression of p62 or LC3, intracellular puncta formation, and intracellular coexistence level were observed by a confocal microscope.

p62 protein [2] = molecular target: T1, p62 protein; assay: Oligomerization activity of p62 protein by immunoblotting; set-up: endogenous in cells; details: HEK293 cell line lysate treated with test compounds for 2 hours at room temperature
Excerpt: In order to evaluate the oligomerization activity efficacy of p62 protein of the compounds (Examples 1-20), HEK293 cell line, which is human embryonic kidney-derived cell, was collected. As representative compounds of the present compounds, the compounds of Examples 1-20 (Example 1 (ATB10048), Example 2 (ATB10047), Example 3 (ATB10049), Example 4 (ATB10051), Example 5 (ATB10050), Example 6 (ATB10056), Example 7 (ATB10052), Example 8 (ATB10057), Example 9 (ATB10060), Example 10 (ATB10072), Example 11 (ATB10075), Example 12 (ATB10078), Example 13 (ATB10079), Example 14 (ATB10080), Example 15 (ATB10081), Example 16 (ATB10087), Example 17 (ATB10096), Example 18 (ATB10097), Example 19 (ATB10099) and Example 20 (ATB10100)) were selected, and in order to measure the activation and oligomerization of the p62 protein in cells according to the treatment with these selected representative compounds, each cell was dispensed into a 100 phi dish. The cells were collected after additional culture for 24 hours so that the cells were completely attached to the surface of the plate, and 100 ul of lysis buffer (20 mM Tris (pH 7.4), 150 mM NaCl, 1% Triton X-100, 2 mM NaF, 2 mM EDTA, 2 mM beta-glycerophosphate, 5 mM sodium orthovanadate, 1 mM PMSF, leupeptin, aproteinin) was injected to each sample, and the cells were lysed. Based on the measured total protein concentration, each sample was treated with the test compounds for 2 hours at room temperature, and then a sample buffer was added and reacted at 95° C. for 10 minutes. 25 ul was taken from the samples after the reaction was completed and dispensed into each well of an acrylamide gel, and immunoblotting was performed.

p62 protein [3] = molecular target: T1, p62 protein; assay: Activity of p62 protein and delivery of ubiquitinated substrate proteins to autophagy by immunofluorescence staining (p62, FK2) and confocal microscopy; set-up: endogenous in cells; host or cells: HeLa; details: Hela cell line, 1 uM, 6 hours
Description: Immunofluorescence staining was performed using p62 and FK2 as markers to determine the level of the activity of p62 protein of the compounds (Examples 1-20). In order to determine the level of p62 activity and autophagy activity by the novel p62 ligand and its isomers in the cultured cells, the Hela cell line derived from cervical cancer patients was treated with a novel p62 ligand compound (Example 1 (ATB10048), Example 2 (ATB10047), Example 3 (ATB10049), Example 5 (ATB10050), Example 4 (ATB10051), Example 7 (ATB10052), Example 6 (ATB10056), Example 8 (ATB10057), Example 9 (ATB10060), Example 10 (ATB10072), Example 11 (ATB10075), Example 12 (ATB10078), […], Example 14 (ATB10080), Example 15 (ATB10081), Example 16 (ATB10087)), Example 17 (ATB0096), Example 18 (ATB10097), Example 19 (ATB10099) and Example 20 (ATB10100)) and cultured, and then the level of puncta expression and location of FK2, which was a marker of the protein to be delivered to and degraded in the autophagy through the mediation of the intracellular ubiquitinated p62, and the puncta local co-existence with p62 were observed.
For immunofluorescence staining, a cover glass was placed on a 24-well plate, cells were dispensed and cultured for 24 hours, and then 1 uM of the novel p62 ligand according to the present invention was treated. After culturing for an additional 6 hours for the action of the compound, the medium was removed, and the cells were fixed using formaldehyde at room temperature. In order to prevent non-specific staining, the cells were reacted with a blocking solution at room temperature for 1 hour, and then the LC3 antibody diluted at a certain ratio was treated with a blocking solution and then reacted at room temperature for 1 hour. After the antibody-treated cells were washed 3 times with PBS, the goat-derived secondary antibody was diluted at a certain ratio using the blocking solution, and then reacted at room temperature for 30 minutes. After further washing with PBS three times, and DAPI staining was performed for intracellular nuclear staining. Then, the level of expression of p62 or FK2, the level of intracellular puncta formation, and the level of coexistence in the cells were observed by a confocal microscope.

SMILES | targeting of activated, oligomerized p62 protein to the autophagosome (FIG. 4) (p62 protein [1]) | p62 protein oligomerization activity (immunoblot, FIGS. 2a to 2d) (p62 protein [2]) | delivery of ubiquitinated proteins marked with FK2 to autophagosome mediated by p62 (FIGS. 3a to 3d) (p62 protein [3])
O=C(CO)NCc1cc(OCc2ccccc2)ccn1 [Example 4, N-((4-(benzyloxy)pyridin-2-yl)methyl)-2-hydroxyacetamide] | show the efficacy of targeting them to the autophagosome | increasing the p62 protein oligomerization activity | show the efficacy of delivering the proteins to be delivered to and degraded by autophagosome
OCCNCc1cccc(OCc2ccccc2)n1 [Example 2, 2-(((6-(benzyloxy)pyridin-2-yl)methyl)amino)ethan-1-ol] | show the efficacy of targeting them to the autophagosome | increasing the p62 protein oligomerization activity | show the efficacy of delivering the proteins to be delivered to and degraded by autophagosome
COC(=O)CCNC[C@@H](O)COc1cc(OCc2ccccc2)ccn1 [Example 12, methyl (R)-3-((3-((4-(benzyloxy)pyridin-2-yl)oxy)-2-hydroxypropyl)amino)propanoate] | show the efficacy of targeting them to the autophagosome | increasing the p62 protein oligomerization activity | show the efficacy of delivering the proteins to be delivered to and degraded by autophagosome
NC(=O)NCc1ccc(OCc2ccccc2)cn1 [Example 6, 1-((5-(benzyloxy)pyridin-2-yl)methyl)urea] | show the efficacy of targeting them to the autophagosome | increasing the p62 protein oligomerization activity | show the efficacy of delivering the proteins to be delivered to and degraded by autophagosome
OCCNCc1ncc(OCc2ccccc2)cn1 [Example 9, 2-(((5-(benzyloxy)pyrimidin-2-yl)methyl)amino)ethan-1-ol] | show the efficacy of targeting them to the autophagosome | increasing the p62 protein oligomerization activity | show the efficacy of delivering the proteins to be delivered to and degraded by autophagosome
OCCNCc1ccc(OCc2ccccc2)o1 [Example 18, 2-(((5-(benzyloxy)-furan-2-yl)methyl)amino)ethan-1-ol] | show the efficacy of targeting them to the autophagosome | increasing the p62 protein oligomerization activity | show the efficacy of delivering the proteins to be delivered to and degraded by autophagosome
